Source: patent US6596500B1, “Binding of retinoids to M6P/IGF-II receptor” (The General Hospital Corporation, priority 1998, dated 2003)
Blank lines part the entries; values can stand above or below the compound they belong to.

Tests used:
[1] = target: T1, M6P/IGF2R (300 kDa protein) (Rattus norvegicus, UniProt G3V824); test: [3H]RA photoaffinity labeling of the 300 kDa protein; format: binding; conditions: for Inhibition of [3H]RA photolabeling/binding to M6P/IGF2R by nonradioactive competitor: 25- to 50-fold molar excess (50 μM) competitor added before photolysis
T1 construct: about 100 μg of proteins of membrane preparations or serum; from tissue; host or cells: membrane preparations of cultured neonatal Sprague-Dawley rat cardiac myocytes
T1 sequence (G3V824 36-2481): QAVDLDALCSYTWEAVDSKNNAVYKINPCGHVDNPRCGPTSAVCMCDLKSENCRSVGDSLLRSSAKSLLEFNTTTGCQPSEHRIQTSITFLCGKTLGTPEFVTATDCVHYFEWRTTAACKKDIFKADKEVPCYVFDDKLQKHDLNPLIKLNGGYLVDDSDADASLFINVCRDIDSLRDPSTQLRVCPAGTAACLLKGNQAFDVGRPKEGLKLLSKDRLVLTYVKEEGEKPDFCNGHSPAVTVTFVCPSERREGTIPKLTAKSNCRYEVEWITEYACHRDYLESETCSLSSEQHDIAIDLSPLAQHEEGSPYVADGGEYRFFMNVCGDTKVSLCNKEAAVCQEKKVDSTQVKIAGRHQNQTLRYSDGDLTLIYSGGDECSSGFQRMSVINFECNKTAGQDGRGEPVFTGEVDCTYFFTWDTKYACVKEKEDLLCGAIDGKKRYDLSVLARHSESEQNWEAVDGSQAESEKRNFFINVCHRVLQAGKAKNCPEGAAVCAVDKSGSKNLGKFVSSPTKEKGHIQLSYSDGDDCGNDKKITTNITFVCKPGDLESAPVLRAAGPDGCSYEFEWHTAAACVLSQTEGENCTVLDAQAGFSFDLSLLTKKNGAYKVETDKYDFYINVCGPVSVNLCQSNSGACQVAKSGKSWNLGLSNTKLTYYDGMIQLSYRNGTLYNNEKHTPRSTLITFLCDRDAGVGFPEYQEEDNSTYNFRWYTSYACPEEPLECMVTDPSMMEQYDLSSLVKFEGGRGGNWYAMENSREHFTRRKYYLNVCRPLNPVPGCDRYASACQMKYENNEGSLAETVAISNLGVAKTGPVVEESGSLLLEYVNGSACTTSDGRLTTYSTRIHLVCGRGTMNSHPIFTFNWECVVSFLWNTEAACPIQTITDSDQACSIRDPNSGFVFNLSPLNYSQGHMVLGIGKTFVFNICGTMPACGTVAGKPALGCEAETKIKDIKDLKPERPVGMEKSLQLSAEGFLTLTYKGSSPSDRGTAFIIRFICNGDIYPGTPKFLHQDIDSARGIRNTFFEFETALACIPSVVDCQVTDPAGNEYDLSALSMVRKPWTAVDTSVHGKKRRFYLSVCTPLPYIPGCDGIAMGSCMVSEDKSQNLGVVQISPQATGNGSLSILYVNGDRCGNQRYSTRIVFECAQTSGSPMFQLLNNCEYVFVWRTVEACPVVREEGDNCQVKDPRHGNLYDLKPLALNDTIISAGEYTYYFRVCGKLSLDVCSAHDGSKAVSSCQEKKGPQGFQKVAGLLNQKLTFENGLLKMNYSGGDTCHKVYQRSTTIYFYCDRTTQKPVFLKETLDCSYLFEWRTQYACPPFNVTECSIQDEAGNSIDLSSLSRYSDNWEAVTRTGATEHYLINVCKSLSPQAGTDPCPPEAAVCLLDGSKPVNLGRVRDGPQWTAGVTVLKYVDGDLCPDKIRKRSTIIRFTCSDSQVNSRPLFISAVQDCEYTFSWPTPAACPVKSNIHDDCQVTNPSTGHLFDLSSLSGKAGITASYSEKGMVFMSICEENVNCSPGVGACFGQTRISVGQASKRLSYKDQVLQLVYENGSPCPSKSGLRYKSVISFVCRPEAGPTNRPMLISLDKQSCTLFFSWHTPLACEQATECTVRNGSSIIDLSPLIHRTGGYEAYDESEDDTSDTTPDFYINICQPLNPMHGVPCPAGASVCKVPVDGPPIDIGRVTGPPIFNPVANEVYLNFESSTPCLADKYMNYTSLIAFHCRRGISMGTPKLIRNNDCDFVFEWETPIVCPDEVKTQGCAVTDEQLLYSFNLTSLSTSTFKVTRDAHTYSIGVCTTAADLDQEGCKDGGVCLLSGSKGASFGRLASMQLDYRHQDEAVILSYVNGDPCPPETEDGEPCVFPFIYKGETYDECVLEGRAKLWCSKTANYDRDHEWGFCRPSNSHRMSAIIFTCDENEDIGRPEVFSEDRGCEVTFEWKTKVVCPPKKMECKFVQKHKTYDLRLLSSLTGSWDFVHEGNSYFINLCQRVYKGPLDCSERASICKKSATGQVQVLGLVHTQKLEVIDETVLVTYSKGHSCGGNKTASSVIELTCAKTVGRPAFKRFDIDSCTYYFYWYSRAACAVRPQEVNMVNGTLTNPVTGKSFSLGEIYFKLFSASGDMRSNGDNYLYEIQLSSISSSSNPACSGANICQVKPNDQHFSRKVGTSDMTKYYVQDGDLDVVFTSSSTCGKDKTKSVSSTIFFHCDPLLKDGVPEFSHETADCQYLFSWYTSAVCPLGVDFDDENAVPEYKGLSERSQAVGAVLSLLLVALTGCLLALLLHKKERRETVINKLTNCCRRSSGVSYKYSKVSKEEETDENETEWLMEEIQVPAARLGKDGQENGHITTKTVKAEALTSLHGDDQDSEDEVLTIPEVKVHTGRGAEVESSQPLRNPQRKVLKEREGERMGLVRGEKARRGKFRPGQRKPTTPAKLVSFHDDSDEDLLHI
Procedure: Photoaffinity Labeling Photoaffinity labeling was performed essentially according to the methods described in Bernstein et al., 1995, Proc. Natl. Acad. Sci. USA 92:654-658. […] After the ethanol has been evaporated with nitrogen, about 100 μg of proteins of membrane preparations or serum [serum proteins were first concentrated using a Biomax-100K Centrifugal Filter Device (Millipore)] were then added to each tube. The final volume was adjusted to 100 μl with 50 mM Tris buffer (pH 7.4) containing protease inhibitors (5 mM EDTA, 5 mM EGTA, 0.1 mM phenylmethylsulfonyl fluoride, 0.05% NaN3, 20 μg/ml aprotinin, 10 μg/ml benzamidine and 12.5 μg/ml chymostatin) and 50 μM butylated hydroxytoluene (a radical scavenger, used to minimize the non-specific labeling) for a final concentration of 1 μM labeled retinoic acid. The samples were incubated at room temperature with agitation for 1 hour in the dark. The samples were exposed to an intense 365-nm UV light source (Model B 100AP, UPland, CA) for 7 min. […] To remove the non-covalently bound ligands, the photolabeled samples were extracted with chloroform/methanol (2:1), or washed once by centrifugation for membrane samples only).
Fluorography The resultant protein pellets were dissolved in SDS sample buffer containing 5% β-mercapto-ethanol and heated at 100° C. for 5 min. These samples were then run on 7% polyacrylamide gels (30:0.2, acrylamide/bisacrylamide ratio), using conventional SDS/PAGE techniques. After electrophoresis, the gels were stained with Coomassie blue, soaked in Amplifier (Amersham, Life Science) for 30 minutes, dried by a vacuum gel dryer and then exposed to Hyperfilm-TM X-ray films (Amersham, Life Science) at […] for 1-3 days.

P388D1 cells = test: Morphology, growth and apoptosis of P388D1 cells overexpressing M6P/IGF2R; format: cell-based, mouse; conditions: P388D1 cells overexpressing M6P/IGF2R
Procedure: FIG. 10 is a graph showing the effect of RA treatment on growth rate of P388D1 cells overexpressing M6P/IGF2R protein and P388D1 controls. Open circles, vector control cells without RA treatment; closed circles, vector control cells with 1 μM RA treatment; open triangles, overexpressing cells without RA treatment; closed triangles overexpressing cells with 1 μM RA treatment.
We examined M6P/IGF2R-mediated effects of RA in mouse macrophage P388D1 cells, which are the best characterized cells that lack the M6P/IGF2R protein.

[2] = test system: neonatal rat cardiac myocytes; test: Growth, morphology and apoptosis of cardiac myocytes; format: cell-based; conditions: 48 hours
Procedure: Cultured neonatal rat cardiac myocytes were known to express high levels of the M6P/IGF2R protein. The effect of RA on the growth of normal, neonatal rat cardiac myocytes was examined.
Cell Isolation and Culture For the photoaffinity labeling experiments, cardiac myocytes were isolated from 1-day-old neonatal Sprague-Dawley rats, using the Neonatal Cardiomyocyte Isolation System (Worthington). The isolated cell were cultured on Petri dishes with culture medium (F-10 nutrient mixture/10% horse serum/5% fetal bovine serum/50 μg/ml streptomycin/50 units/ml penicillin G). Cells were used for experiments after 2-6 days of culture.

[3] = target: T2, partially-purified neonatal rat serum IGF2R (Rattus norvegicus, UniProt G3V824); test: Competitive radioligand (10 nM [3H]RA) binding assay; conditions: n=3, read-out: IC50 (50% inhibitory concentration) for [3H]RA binding
T2 construct: both intact (300 kDa) and truncated (260 kDa) forms of M6P/IGF-II receptor exist in the serum; from tissue; host or cells: neonatal rat serum, FPLC Sepharose-12 fraction
T2 sequence (G3V824 36-2481): as above
Procedure: Partially purified M6P/IGF-II receptors from neonatal rat serum was prepared using a Fast Protein Liquid Chromatography (FPLC) system equipped with a Sepharose-12 column (Pharmacia). The partially purified M6P/IGF2R protein was diluted in binding buffer (20 mM Tris-HCl, pH 8.0/150 mM NaCl/1mM DTT/protease inhibitors) at a concentration of 50 Ag/ml. […] Incubation was carried out at 22° C. for 2 h in the dark. After the incubation, 0.2 ml chilled charcoal-dextran suspension (charcoal/dextran/glycerol=0.5%/0.05%/20%) was added to remove the unbound ligand.

neonatal rat fibroblasts = test: Immunofluorescence of cathepsin B distribution in fibroblasts; format: cell-based; conditions: RAR antagonist with RA
Description: FIGS. 8A and 8B are photomicrographs showing effect of retinoic acid on the distribution of cathepsin B in neonatal rat fibroblasts. […] The enzyme was found mainly in the perinuclear area. […] Bar represents 4 μm.
Since biosynthetic transport of lysosomal enzymes from the TGN to endosomes/lysosomes is mainly mediated by the M6P/IGF2R (Sohar et al., 1998, Biochem. J. 330:903-908), an enhanced trafficking of the receptor should lead to an increased translocation of the M6P-containing lysosomal enzymes from the TGN to lysosomes. To test this, we examined the effect of RA on the intracellular distribution of cathepsin B, a lysosomal protease known to be transported in a M6P-dependent manner in fibroblasts (Hanewinkel et al., 1987, J. Diol. Chem. 262:12351-12355). […] The distribution was similar to that of M6P/IGF2R (shift from perinuclear area to cytoplasmic vesicles throughout the cytoplasm).
(§1) Intracellular Trafficking Materials Retinoic acid was obtained from Sigma Chem. Co. (St. Louis, Mo.). The synthetic retinoids used (AGN193109, TTNPB) were produced by Allergan Inc. (Irvine, Calif.). Stably-transfected P388D1 cells re-expressing the M6P/IGF2R were provided by Dr. William S. Sly (St. Louis University). The rabbit polyclonal antibody against the rat M6P/IGF-II receptor was a gift from Dr. R.G. MacDonald (University of Nebraska). […]

M6P/IGF2R = M6P/IGF2R (Rattus norvegicus, UniProt G3V824); test: Immunofluorescence of M6P/IGF2R distribution in fibroblasts; format: cell-based; parameters: endogenous in cells; host or cells: primary neonatal rat cardiac fibroblasts; conditions: RAR antagonist with RA
M6P/IGF2R, sequence (G3V824 36-2481): as above
Description: FIGS. 7A and 7B are photo micrographs showing the effect of retinoic acid on the distribution of the M6P/IGF2R in neonatal rat fibroblasts. […] The receptor was concentrated primarily in the perinuclear structure (probably the TGN area). […] Bar represents 4 μm.
To determine if RA affects intracellular trafficking of the M6P/IGF2R, distribution of the receptor in neonatal rat fibroblasts with or without RA treatment was visualized by immunofluorescence. The primary antibody used to target the receptor was a polyclonal anti-rat M6P/IGF2R (full length) rabbit IgG with high specificity. A non-immuno-rabbit IgG was used as a negative control. As indicated by fluorescence (FIGS. 7A and 7B), the M6P/IGF2R in the fibroblasts is normally concentrated primarily in the perinuclear structure (probably the TGN). […] This indicated a potentiating effect of RA on the trafficking of the M6P/IGF2R from the TGN to the endosomes/lysosomes.
as §1

Compound: CC1=C(/C=C/C(C)=C\C=C\C(C)=C\C(=O)O)C(C)(C)CCC1 [9-cis-RA, 9-cis-retinoic acid]
Inhibition of [3H]RA photolabeling/binding to M6P/IGF2R by nonradioactive competitor [1]: inhibited the binding

Compound: CC1=C(/C=C/C(C)=C/C=C/C(C)=C\C(=O)O)C(C)(C)CCC1 [13-cis-RA, 13-cis-retinoic acid]
Inhibition of [3H]RA photolabeling/binding to M6P/IGF2R by nonradioactive competitor [1]: inhibited the binding

Compound: CC1=C(/C=C/C(C)=C/C=C/C(C)=C/C=O)C(C)(C)CCC1 [retinal]
Induction of the RA-like effects on morphology, proliferation and apoptosis (P388D1 cells): similarly induced

Compound: Cc1ccc(C2=CCC(C)(C)c3ccc(C#Cc4ccc(C(=O)O)cc4)cc32)cc1 [AGN193109]
Blocking of RA effect on cathepsin B distribution by RAR antagonist (neonatal rat fibroblasts): neither blocked by the RAR antagonist
Blocking of RA effect on M6P/IGF2R distribution by RAR antagonist (M6P/IGF2R): neither blocked by the RAR antagonist

Compound: IGF-II: insulin-like growth factor II (a protein), ligand of the M6P/IGF-II receptor
Inhibition of [3H]RA binding to M6P/IGF-II receptor by other receptor ligands ([1]; [3H]RA affinity photolabeling): Neither M6P nor IGF-II inhibited

More lines, main results first:

Inhibition of [3H]RA photolabeling/binding to M6P/IGF2R by nonradioactive competitor [1]: inhibited the binding
IC50 [3]: 120 ± 18 nM
Compound: CC1=C(/C=C/C(C)=C/C=C/C(C)=C/CO)C(C)(C)CCC1 [retinol]
Cell morphology and growth [2]: exerted effects on cell morphology and growth similar to the effects of RA
Induction of the RA-like effects on morphology, proliferation and apoptosis (P388D1 cells): similarly induced

Inhibition of [3H]RA photolabeling/binding to M6P/IGF2R by nonradioactive competitor [1]: inhibited the binding
IC50 [3]: 135 ± 30 nM
Compound: retinol acetate
Cell morphology and growth [2]: exerted effects on cell morphology and growth similar to the effects of RA
Induction of the RA-like effects on morphology, proliferation and apoptosis (P388D1 cells): similarly induced

[3H]RA labeling of M6P/IGF-II receptor, presence vs absence of M6P ([1]; 5 mM M6P, measured by NIH Image, n=3): 2 fold
Enhancement of cross-linking of [3H]RA to M6P/IGF-II receptor ([1]; [3H]RA affinity photolabeling): significantly enhanced
Inhibition of [3H]RA binding to M6P/IGF-II receptor by other receptor ligands ([1]; [3H]RA affinity photolabeling): Neither M6P nor IGF-II inhibited
Compound: O=C[C@@H](O)[C@@H](O)[C@H](O)[C@H](O)COP(=O)(O)O [M6P, mannose 6-phosphate]
